Results reported in patent US11564920B2, “5-heteroaryl-1H-pyrazol-3-amine derivative” (Sumitomo Pharma Co., Ltd., priority 2020, dated 2023).
Where two headings read alike, the source gives them in different places.

Experiments:
[1] = biological target: CYP3A4 (Homo sapiens (Human), UniProt P08684); experiment: CYP3A4 MBI and enzyme inactivation clearance evaluation; format: in vitro ADME; conditions: human liver microsome
Description: The effect and mode of inhibition of the test compound on CYP3A4 were evaluated using a human liver microsome as an enzyme source and midazolam or testosterone as a substrate. […] The IC50 value was calculated from a concentration plot.

[2] = test system: Human bone marrow CD34 positive hematopoietic stem cells; experiment: Human bone marrow cell colony formation test (hemotoxicological evaluation test); format: cell-based; conditions: 100 nM; for Colony count (/well), mean: 48 hours, then about 2 weeks culture
Description: Human bone marrow CD34 positive hematopoietic stem cells were obtained from Lonza K. K. The frozen cells were thawed in a medium prepared by mixing a Methocult Express medium and a 10% fetal bovine serum with 1% penicillin/streptomycin containing RPMI 1640 medium at 9:1. 5000 cells were seeded per well in a 6 well plate and cultured overnight at […] in the presence of 5% CO2. The evaluated compound was added so that the final concentration of DMSO would be 0.1% and 100 nM, and the cells were cultured for 48 hours. The cells were retrieved and washed with PBS. ⅙ of the amount of cells was seeded in a 12 well plate and cultured for about. 2 weeks at 37° C. in the presence of 5% CO2. After completion of culture, the number of colonies formed was calculated using Thiazolyl blue tetrazolium bromide (MTT).

[3] = biological target: MELK (Homo sapiens (Human), UniProt Q14680); experiment: Kinase selectivity test (HotSpot Full Panel Kinase profiling); format: biochemical; conditions: 100 nM, ATP 10 μM; read-out: Residual activity (%) MELK
Chain of MELK (Q14680 whole entry): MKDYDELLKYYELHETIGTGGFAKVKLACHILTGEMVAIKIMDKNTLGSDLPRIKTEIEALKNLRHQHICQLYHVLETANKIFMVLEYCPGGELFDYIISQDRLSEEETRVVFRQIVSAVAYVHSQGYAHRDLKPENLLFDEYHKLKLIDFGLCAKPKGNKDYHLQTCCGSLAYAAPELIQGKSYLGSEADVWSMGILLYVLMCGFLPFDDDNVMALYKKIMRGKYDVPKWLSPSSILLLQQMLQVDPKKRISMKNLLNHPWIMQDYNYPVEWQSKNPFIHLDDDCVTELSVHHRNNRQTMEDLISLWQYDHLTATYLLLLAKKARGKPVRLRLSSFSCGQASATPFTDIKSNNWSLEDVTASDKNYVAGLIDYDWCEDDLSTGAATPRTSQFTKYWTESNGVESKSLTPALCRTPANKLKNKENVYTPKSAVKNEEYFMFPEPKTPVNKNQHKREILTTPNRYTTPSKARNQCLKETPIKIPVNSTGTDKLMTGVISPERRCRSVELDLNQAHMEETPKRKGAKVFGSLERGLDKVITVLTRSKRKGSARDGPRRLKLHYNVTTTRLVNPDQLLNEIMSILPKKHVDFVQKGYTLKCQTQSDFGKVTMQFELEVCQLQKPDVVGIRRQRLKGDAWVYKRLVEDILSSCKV
Description: (§1) Buffer: 20 mM HEPES, pH 7.5, 10 mM MgCl2, 2 mM […] (as needed), 1 mM EGTA, 0.02% Brij35, 0.02 mg/mL BSA, 0.1 mM Na3VO4, 2 mM DTT, 1% DMSO
(§2) Compound concentration: 100 nM

[4] = biological target: RET (Homo sapiens (Human), UniProt P07949); experiment: as above; format: biochemical; conditions: 100 nM, ATP 10 μM; read-out: Residual activity (%) RET
Description: as §1, §2

[5] = biological target: RSK1 (Homo sapiens (Human), UniProt Q15418); experiment: as above; format: biochemical; conditions: 100 nM, ATP 10 μM; read-out: Residual activity (%) RSK1
Chain of RSK1 (Q15418 whole entry): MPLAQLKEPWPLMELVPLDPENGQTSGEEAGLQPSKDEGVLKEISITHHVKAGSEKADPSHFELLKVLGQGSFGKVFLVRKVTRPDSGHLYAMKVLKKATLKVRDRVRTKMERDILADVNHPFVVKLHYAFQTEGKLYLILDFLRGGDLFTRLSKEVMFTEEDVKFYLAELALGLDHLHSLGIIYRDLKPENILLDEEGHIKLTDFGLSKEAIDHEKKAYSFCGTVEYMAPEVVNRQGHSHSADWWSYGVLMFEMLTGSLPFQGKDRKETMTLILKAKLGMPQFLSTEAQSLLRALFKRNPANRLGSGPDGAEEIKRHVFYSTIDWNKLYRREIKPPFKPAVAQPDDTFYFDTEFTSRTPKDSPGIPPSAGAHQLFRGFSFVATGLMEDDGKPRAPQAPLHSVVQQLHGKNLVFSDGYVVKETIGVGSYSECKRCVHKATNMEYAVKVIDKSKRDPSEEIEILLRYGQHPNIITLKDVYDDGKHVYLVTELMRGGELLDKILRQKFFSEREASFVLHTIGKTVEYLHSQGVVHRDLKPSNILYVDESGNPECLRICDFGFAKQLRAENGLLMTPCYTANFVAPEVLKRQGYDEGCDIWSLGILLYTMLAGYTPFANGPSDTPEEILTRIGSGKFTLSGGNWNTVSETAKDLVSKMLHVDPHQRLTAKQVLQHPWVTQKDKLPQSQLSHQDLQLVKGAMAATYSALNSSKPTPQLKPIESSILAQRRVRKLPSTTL
Description: as §1, §2

[6] = biological target: SIK2 (Homo sapiens (Human), UniProt Q9H0K1); experiment: as above; format: biochemical; conditions: 100 nM, ATP 10 μM; read-out: Residual activity (%) SIK2
Description: as §1, §2

[7] = biological target: RSK4 (Homo sapiens (Human), UniProt Q9UK32); experiment: as above; format: biochemical; conditions: 100 nM, ATP 10 μM; read-out: Residual activity (%) RSK4
Chain of RSK4 (Q9UK32 whole entry): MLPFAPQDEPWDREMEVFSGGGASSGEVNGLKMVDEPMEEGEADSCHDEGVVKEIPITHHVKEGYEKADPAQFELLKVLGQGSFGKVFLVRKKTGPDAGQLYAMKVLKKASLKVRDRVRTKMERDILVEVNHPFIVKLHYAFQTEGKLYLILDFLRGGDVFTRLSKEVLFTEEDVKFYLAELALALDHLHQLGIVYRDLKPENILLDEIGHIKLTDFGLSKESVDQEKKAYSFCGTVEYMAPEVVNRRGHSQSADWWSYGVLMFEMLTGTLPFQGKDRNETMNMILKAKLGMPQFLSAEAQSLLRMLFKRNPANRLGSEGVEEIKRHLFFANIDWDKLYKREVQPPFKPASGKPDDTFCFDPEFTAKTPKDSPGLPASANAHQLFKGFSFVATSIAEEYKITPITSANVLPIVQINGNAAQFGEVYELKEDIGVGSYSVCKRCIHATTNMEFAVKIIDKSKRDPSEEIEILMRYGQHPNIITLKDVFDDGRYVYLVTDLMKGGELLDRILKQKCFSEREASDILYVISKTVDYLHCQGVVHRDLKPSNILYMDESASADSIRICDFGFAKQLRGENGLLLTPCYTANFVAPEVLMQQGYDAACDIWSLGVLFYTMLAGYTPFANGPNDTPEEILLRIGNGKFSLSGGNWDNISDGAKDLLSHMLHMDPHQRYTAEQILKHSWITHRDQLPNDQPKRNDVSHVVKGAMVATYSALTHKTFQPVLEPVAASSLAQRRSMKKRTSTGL
Description: as §1, §2

[8] = biological target: MARK4 (Homo sapiens (Human), UniProt Q96L34); experiment: as above; format: biochemical; conditions: 100 nM, ATP 10 μM; read-out: Residual activity (%) MARK4 (MARKA [sic] in Table 32)
Description: as §1, §2

[9] = biological target: RSK2 (Homo sapiens (Human), UniProt P51812); experiment: as above; format: biochemical; conditions: 100 nM, ATP 10 μM; read-out: Residual activity (%) RSK2
Chain of RSK2 (P51812 whole entry): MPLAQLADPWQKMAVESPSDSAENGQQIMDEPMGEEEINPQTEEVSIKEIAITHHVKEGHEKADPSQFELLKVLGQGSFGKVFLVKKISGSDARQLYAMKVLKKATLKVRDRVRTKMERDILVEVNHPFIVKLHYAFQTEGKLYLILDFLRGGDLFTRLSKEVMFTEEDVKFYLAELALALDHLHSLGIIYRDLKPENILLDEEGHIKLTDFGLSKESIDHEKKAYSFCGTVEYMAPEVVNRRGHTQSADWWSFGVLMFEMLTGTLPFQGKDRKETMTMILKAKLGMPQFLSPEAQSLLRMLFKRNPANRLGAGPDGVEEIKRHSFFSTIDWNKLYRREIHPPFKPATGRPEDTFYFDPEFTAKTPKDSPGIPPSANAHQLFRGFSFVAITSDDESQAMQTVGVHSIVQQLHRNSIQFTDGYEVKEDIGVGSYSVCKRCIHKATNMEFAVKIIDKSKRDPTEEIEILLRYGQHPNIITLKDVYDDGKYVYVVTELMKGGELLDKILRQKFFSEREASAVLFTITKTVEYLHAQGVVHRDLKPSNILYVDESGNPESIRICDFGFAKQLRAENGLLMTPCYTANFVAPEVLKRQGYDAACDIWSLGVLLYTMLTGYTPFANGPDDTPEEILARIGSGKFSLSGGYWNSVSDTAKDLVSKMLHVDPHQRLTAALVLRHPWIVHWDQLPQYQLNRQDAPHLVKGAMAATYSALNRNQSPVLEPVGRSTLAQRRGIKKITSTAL
Description: as §1, §2

[10] = biological target: TNIK (Homo sapiens (Human), UniProt Q9UKE5); experiment: as above; format: biochemical; conditions: 100 nM, ATP 10 μM; read-out: Residual activity (%) TNIK
Description: as §1, §2

[11] = biological target: CAMK2A (Homo sapiens (Human), UniProt Q9UQM7); experiment: as above; format: biochemical; conditions: 100 nM, ATP 10 μM; read-out: Residual activity (%) CAMK2A
Description: as §1, §2

[12] = biological target: TRKC (Homo sapiens (Human), UniProt Q16288); experiment: as above; format: biochemical; conditions: 100 nM, ATP 10 μM; read-out: Residual activity (%) TRKC
Chain of TRKC (Q16288 32-839): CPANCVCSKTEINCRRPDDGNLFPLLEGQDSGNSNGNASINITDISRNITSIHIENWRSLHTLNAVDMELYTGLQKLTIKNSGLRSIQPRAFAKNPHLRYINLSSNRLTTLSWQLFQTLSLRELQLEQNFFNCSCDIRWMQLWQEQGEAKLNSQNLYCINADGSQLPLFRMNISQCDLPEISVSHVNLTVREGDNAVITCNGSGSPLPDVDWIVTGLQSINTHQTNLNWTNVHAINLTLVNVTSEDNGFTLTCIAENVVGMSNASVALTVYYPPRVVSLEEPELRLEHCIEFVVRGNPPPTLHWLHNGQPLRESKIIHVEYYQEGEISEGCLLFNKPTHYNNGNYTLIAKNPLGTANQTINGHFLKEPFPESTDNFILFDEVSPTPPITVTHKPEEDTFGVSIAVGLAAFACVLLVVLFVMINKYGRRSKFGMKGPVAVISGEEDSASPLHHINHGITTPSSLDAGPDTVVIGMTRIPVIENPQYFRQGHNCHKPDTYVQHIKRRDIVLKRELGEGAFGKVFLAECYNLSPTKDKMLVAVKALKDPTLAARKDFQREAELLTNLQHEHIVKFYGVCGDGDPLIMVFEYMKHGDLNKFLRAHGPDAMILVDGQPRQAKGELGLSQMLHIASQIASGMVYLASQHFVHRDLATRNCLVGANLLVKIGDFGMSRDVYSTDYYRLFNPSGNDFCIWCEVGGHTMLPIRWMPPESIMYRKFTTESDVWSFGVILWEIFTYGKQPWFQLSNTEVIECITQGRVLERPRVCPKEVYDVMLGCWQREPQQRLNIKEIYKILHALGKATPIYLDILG
Description: as §1, §2

[13] = biological target: RSK3 (Homo sapiens (Human), UniProt Q15349); experiment: as above; format: biochemical; conditions: 100 nM, ATP 10 μM; read-out: Residual activity (%) RSK3
Chain of RSK3 (Q15349 whole entry): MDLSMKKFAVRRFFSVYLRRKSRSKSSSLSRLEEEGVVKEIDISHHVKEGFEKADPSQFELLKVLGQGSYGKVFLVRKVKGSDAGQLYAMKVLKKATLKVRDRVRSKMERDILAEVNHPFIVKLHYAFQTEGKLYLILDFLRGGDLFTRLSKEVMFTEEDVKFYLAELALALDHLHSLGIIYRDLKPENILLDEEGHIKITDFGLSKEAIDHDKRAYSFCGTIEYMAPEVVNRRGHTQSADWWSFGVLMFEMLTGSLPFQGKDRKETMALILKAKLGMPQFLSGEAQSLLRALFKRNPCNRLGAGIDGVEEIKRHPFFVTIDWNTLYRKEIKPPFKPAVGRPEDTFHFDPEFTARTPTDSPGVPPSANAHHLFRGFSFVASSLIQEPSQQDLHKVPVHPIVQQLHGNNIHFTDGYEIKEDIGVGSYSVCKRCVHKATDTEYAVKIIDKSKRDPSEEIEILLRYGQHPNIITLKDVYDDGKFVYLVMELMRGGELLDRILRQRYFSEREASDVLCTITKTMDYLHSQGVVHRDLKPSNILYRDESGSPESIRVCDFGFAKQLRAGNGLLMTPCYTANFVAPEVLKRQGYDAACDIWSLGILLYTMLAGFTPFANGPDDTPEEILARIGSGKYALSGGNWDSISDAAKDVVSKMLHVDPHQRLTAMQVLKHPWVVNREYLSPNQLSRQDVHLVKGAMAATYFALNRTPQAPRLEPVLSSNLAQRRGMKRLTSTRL
Description: as §1, §2

[14] = Liposome encapsulation test (Test Example 6); format: physicochemical
Description: 6.48 g of hydrogenated soybean phosphatidylcholine (COATSOME NC-21E, NOF Corporation), 2.32 g of cholesterol (Sigma) and 2.06 g of distearoylphosphatidylethanolamine-methoxypolyethylene glycol 2000 (SUNBRIGHT DSPE-020CN, NOF Corporation) were dissolved in 560 mL of t-butyl alcohol heated to 65° C. The solution was frozen with dry ice/acetone bath and t-butyl alcohol was then removed by evaporation under reduced pressure to obtain a lipid mixture.
200 mL of 250 mM ammonium sulfate solution was added to the lipid mixture. The resulting mixture was heated to 65° C. and dispersed with a homogenizer (ULTRA-TURRAX, IKA) to obtain a crude liposome dispersion. […] The prepared amount was increased or decreased appropriately.
2 to 3 mg of the test compound was weighed out. 1 mL of empty liposome solution with a total lipid concentration of 50 mM was added. An aqueous 1 mol/L hydrochloric acid or 1 mol/L sodium hydroxide solution was added to adjust the pH to 5.5 to 7. […] Insolubles, when present, were removed by centrifugation for 5 minutes at 15,000×g.
100 μL of liposome solution was passed through an ultrafiltration filter (Amicon Ultra, 100K, 0.5 mL, Merck), and centrifuged at 4° C. at 15,000×g for 10 minutes. The concentration of the compound in the filtrate after ultrafiltration was measured by HPLC as the unencapsulated compound concentration.
The liposome solution was diluted with a trifluoroacetic acid/water/methanol mixture (0.1/25/75) and was left standing for 10 minutes or longer at 5° C. The solution was centrifuged for 5 minutes at 15,000×g to remove insolubles. The compound concentration in the supernatant was measured by HPLC as the compound concentration in the liposome solution.
The encapsulation ratio and the encapsulation efficiency were calculated by the following equations. Encapsulation ratio (%)=(compound concentration in liposome solution−unencapsulated compound concentration)×100/compound concentration in liposome solution Encapsulation efficiency (%)=(compound concentration in liposome solution−unencapsulated compound concentration)×100/concentration upon compound introduction

Chain of CYP3A4 (P08684 whole entry): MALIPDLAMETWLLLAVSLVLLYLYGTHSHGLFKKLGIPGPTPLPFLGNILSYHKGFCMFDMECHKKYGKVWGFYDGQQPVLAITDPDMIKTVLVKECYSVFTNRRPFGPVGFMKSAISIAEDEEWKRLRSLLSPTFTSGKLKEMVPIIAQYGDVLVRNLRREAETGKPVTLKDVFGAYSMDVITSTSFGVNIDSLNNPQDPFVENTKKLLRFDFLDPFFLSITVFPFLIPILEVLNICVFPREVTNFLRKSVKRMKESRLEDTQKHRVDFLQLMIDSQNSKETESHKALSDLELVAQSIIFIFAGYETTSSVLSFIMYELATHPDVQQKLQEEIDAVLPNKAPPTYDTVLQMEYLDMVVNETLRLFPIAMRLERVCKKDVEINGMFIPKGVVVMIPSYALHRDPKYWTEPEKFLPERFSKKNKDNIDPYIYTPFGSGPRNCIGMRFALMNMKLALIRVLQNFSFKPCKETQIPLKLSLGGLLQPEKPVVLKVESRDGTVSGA

Row | SMILES | Factor of change in IC50 value ([1]; by pre-incubation with NADPH, MBI action when 2-fold or greater) | inhibition of CYP3A4 based on MBI (in words) [1] | effect on human bone marrow cell colony formation (in words) [2] | Colony count (/well), mean [2] | remaining activity at 0.1 µM [3] | remaining activity at 0.1 µM [4] | remaining activity at 0.1 µM [5] | remaining activity at 0.1 µM [6] | remaining activity at 0.1 µM [7] | remaining activity at 0.1 µM [8] | remaining activity at 0.1 µM [9] | remaining activity at 0.1 µM [10] | remaining activity at 0.1 µM [11] | remaining activity at 0.1 µM [12] | remaining activity at 0.1 µM [13] | Encapsulation efficiency [14] | Encapsulation efficiency ([14]; concentration upon compound introduction 3 mg/mL) | liquid viscosity during the liposome encapsulation procedure ([14]; pH adjusted by adding 1 mol/L hydrochloric acid) | microsomal CLint ([1]; liver microsomes, probe midazolam or testosterone) | Compound concentration in liposome solution ([14]; concentration upon compound introduction 2 mg/mL)
1 | COc1ccnc(OCCCN)c1-c1cc(Nc2cnc(C#N)cn2)n[nH]1 [Example 1, 5-({5-[2-(3-aminopropoxy)-4-methoxypyridin-3-yl]-1H-pyrazol-3-yl}amino)pyrazine-2-carbonitrile] | Not Detected | do not exhibit inhibition of CYP3A4 based on MBI | does not exhibit an effect of suppressing human bone marrow colony formation | 34 /well | 17.2% | 19% | 8.51% | 14.1% | 9.05% | 24.1% | 4.32% | 17.8% | 13.9% | 17.4% | 3.91% | ≥ 80% | 87.4% | increase in viscosity was not found |  | 
2 | COc1cccc(OCCCN)c1-c1cc(Nc2cnc(C#N)cn2)n[nH]1 [Prexasertib, reference compound] |  | exhibits inhibition of CYP3A4 based on MBI | exhibits an effect of suppressing human bone marrow cell colony formation | 19 /well | 11.4% | 7.12% | 2.23% | 2.62% | 4.78% | 10.2% | 0.98% | 7.76% | 2.52% | 12.7% | 1.69% |  |  |  | 0.019 µL/min/mg | 2160 µg/mL
